Laboratory results reported in patent US12637478B2, “Compound, preparation method thereof, and antibiotic composition comprising same” (priority 2020, dated 2026).
Converted amounts (≈) assume the structure as drawn. Where two headings read alike, the source gives them in different places.

Legend:
M. intracelluare = assay: MIC by resazurin (REMA) assay against Mycobacterium, test strain 22; format: cell-based; details: Mycobacterium intracellulare
Procedure: (§1) In order to test the antibacterial activity, the medium of Mycobacterium cultured to late log phase was diluted so as to be 4.0×10^5 cells/well in Middlebrook 7H10 agar medium (Difco) supplemented with 10% oleic acid, albumin, dextrose, catalase (OADC, Becton Dickinson) and 0.05% Tween 80 (Sigma Aldrich) and was dispensed into a 96-well plate. The compounds were treated so that DMSO was 1%, and after 3 days, a 0.025% resazurin (REMA) solution was dispensed, and the growth of the bacteria was confirmed after culturing. The MIC value was measured for the antibacterial activity through resazurin (excitation 530 nm, emission 590 nm).

M. abscessus = assay: MIC by resazurin (REMA) assay against Mycobacterium, test strain 23; format: cell-based; details: Mycobacteroides abscessus
Procedure: as §1

M. avium = assay: MIC by resazurin (REMA) assay against Mycobacterium, test strain 21; format: cell-based; details: test strain 21, M. avium, resazurin, read-out: MIC
Procedure: as §1

C. difficile 159 = assay: MIC by agar dilution against Clostridioides difficile, test strain 15; format: cell-based; details: test strain 15, C. difficile 159, anaerobic, agar dilution, read-out: MIC
S. aureus^VR = assay: MIC by broth microdilution (aerobic pathogens), test strain 4; format: cell-based, Vancomycin resistant Staphylococcus aureus; details: Staphylococcus aureus; test strain 4, S. aureus^VR (vancomycin resistant); read-out: MIC
Procedure: (§2) The antibacterial activity of the compounds of Examples 1 to 48 of the present invention against aerobic pathogens were evaluated by measuring the minimum concentration of the antibiotic capable of inhibiting bacterial growth by 90% compared to the growth of the non-drug treated control group. MIC was measured by the broth microdilution method based on CLSI standards [Reference: Clinical and Laboratory Standards Institute Document. (2000) Methods for Dilution Antimicrobial Susceptibility Test for Bacteria that Grow Aerobically-Fifth Edition: M7-A5. CLSI, Villanova, PA].
(§3) All 13 strains such as methicillin susceptible Staphylococcus aureus (MSSA), methicillin resistant Staphylococcus aureus (MRSA), Vancomycin resistant Staphylococcus aureus (VRSA), Staphylococcus epidermidis, methicillin resistant Staphylococcus epidermidis, Enterococcus faecalis, Vancomycin resistant Enterococcus faecalis, Enterococcus faecium, Vancomycin resistant Enterococcus faecium were used.

C. difficile 173 = assay: MIC by agar dilution against Clostridioides difficile, test strain 17; format: cell-based
S. aureus^MS [1] = assay: MIC by broth microdilution (aerobic pathogens), test strain 2; format: cell-based; details: Staphylococcus aureus; test strain 2, S. aureus^MS; read-out: MIC
Procedure: as §2, §3

C. difficile 161 = assay: MIC by agar dilution against Clostridioides difficile, test strain 16; format: cell-based
C. difficile 181 = assay: MIC by agar dilution against Clostridioides difficile, test strain 19; format: cell-based
S. aureus^MS [2] = assay: MIC by broth microdilution (aerobic pathogens), test strain 1; format: cell-based; details: Staphylococcus aureus
Procedure: as §2, §3

S. epidermis = assay: MIC by broth microdilution (aerobic pathogens), test strain 5; format: cell-based; details: Staphylococcus epidermidis
Procedure: as §2, §3

E. faecalis^VanA = assay: MIC by broth microdilution (aerobic pathogens), test strain 8; format: cell-based, Vancomycin resistant Enterococcus faecalis; details: Enterococcus faecalis; test strain 8, E. faecalis^VanA (vancomycin resistant); read-out: MIC
Procedure: as §2, §3

E. faecalis^LinR = assay: MIC by broth microdilution (aerobic pathogens), test strain 9; format: cell-based, Linezolid resistant Enterococcus faecalis; details: Enterococcus faecalis; test strain 9, E. faecalis^LinR (linezolid resistant); read-out: MIC
Procedure: as §2, §3

S. epidermis^MR = assay: MIC by broth microdilution (aerobic pathogens), test strain 6; format: cell-based, Methicillin resistant Staphylococcus epidermidis; details: Staphylococcus epidermidis
Procedure: as §2, §3

E. faecium^LinR = assay: MIC by broth microdilution (aerobic pathogens), test strain 12; format: cell-based, Linezolid resistant Enterococcus faecium; details: Enterococcus faecium; test strain 12, E. faecium^LinR (linezolid resistant); read-out: MIC
Procedure: as §2, §3

E. faecium = assay: MIC by broth microdilution (aerobic pathogens), test strain 10; format: cell-based; details: Enterococcus faecium; test strain 10, E. faecium; read-out: MIC
Procedure: as §2, §3

S. aureus^MR = assay: MIC by broth microdilution (aerobic pathogens), test strain 3; format: cell-based, Methicillin resistant Staphylococcus aureus; details: Staphylococcus aureus; test strain 3, S. aureus^MR (methicillin resistant); read-out: MIC
Procedure: as §2, §3

C. difficile 152 = assay: MIC by agar dilution against Clostridioides difficile, test strain 14; format: cell-based
C. difficile 9689 = assay: MIC by agar dilution against Clostridioides difficile, test strain 13; format: cell-based
C. difficile 174 = assay: MIC by agar dilution against Clostridioides difficile, test strain 18; format: cell-based
E. faecalis = assay: MIC by broth microdilution (aerobic pathogens), test strain 7; format: cell-based; details: Enterococcus faecalis
Procedure: as §2, §3

E. faecium^VRE = assay: MIC by broth microdilution (aerobic pathogens), test strain 11; format: cell-based, Vancomycin resistant Enterococcus faecium; details: Enterococcus faecium; test strain 11, E. faecium^VRE (vancomycin resistant); read-out: MIC
Procedure: as §2, §3

[3] = test strain 22, M. intracelluare, resazurin, read-out: MIC
[4] = test strain 23, M. abscessus, resazurin, read-out: MIC
[5] = test strain 17, C. difficile 173, anaerobic, agar dilution, read-out: MIC
[6] = test strain 16, C. difficile 161, anaerobic, agar dilution, read-out: MIC
[7] = test strain 19, C. difficile 181, anaerobic, agar dilution, read-out: MIC
[8] = test strain 1, S. aureus^MS, read-out: MIC
[9] = test strain 6, S. epidermis^MR (methicillin resistant), read-out: MIC
[10] = test strain 14, C. difficile 152, anaerobic, agar dilution, read-out: MIC
[11] = test strain 13, C. difficile 9689, anaerobic, agar dilution, read-out: MIC
[12] = test strain 18, C. difficile 174, anaerobic, agar dilution, read-out: MIC
[13] = test strain 7, E. faecalis, read-out: MIC

Row | MIC (M. intracelluare; [3]) [µg/mL] | MIC (M. abscessus; [4]) [µg/mL] | MIC (M. avium) [µg/mL] | MIC (S. aureus^MS [1]) [µg/mL] | MIC (S. aureus^MS [2]; [8]) [µg/mL] | MIC (E. faecalis^LinR) [µg/mL] | Structure (SMILES) | MIC (C. difficile 173; [5]) [µg/mL] | MIC (C. difficile 161; [6]) [µg/mL] | MIC (C. difficile 181; [7]) [µg/mL] | MIC (S. epidermis) [µg/mL] | MIC (E. faecalis^VanA) [µg/mL] | MIC (S. epidermis^MR; [9]) [µg/mL] | MIC (E. faecium) [µg/mL] | MIC (C. difficile 152; [10]) [µg/mL] | MIC (C. difficile 9689; [11]) [µg/mL] | MIC (C. difficile 174; [12]) [µg/mL] | MIC (E. faecalis; [13]) [µg/mL] | further results
1 | 0.143 (≈ 0.191 µM) | 1.28 (≈ 1.71 µM) | 0.205 (≈ 0.274 µM) |  |  |  | CC[C@H]1OC(=O)[C@H](C)[C@@H](O[C@H]2C[C@@](C)(OC)[C@@H](O)[C@H](C)O2)[C@H](C)[C@@H](O[C@@H]2O[C@H](C)C[C@H](N(C)C)[C@H]2O)[C@](C)(OC)C[C@@H](C)C(=O)[C@H](C)[C@@H](O)[C@]1(C)O [Cla, Clarithromycin, reference compound] |  |  |  |  |  |  |  |  |  |  |  | 
2 |  |  | 0.135 (≈ 0.108 µM) | 1 (≈ 0.797 µM) | 1 (≈ 0.797 µM) | 1 (≈ 0.797 µM) | C/C=C1\NC(=O)[C@H]([C@@H](C)O)NC(=O)c2csc(n2)-c2ccc(-c3nc(-c4nc(C(=O)NC5(C(=O)NCCCN6CCN(C(C)C)CC6)CC5)cs4)cs3)nc2-c2csc(n2)[C@H]([C@@H](C)O)NC(=O)c2csc(n2)[C@H](C(C)C)NC(=O)c2csc1n2 [Compound 12] | 1 (≈ 0.797 µM) | 0.5 (≈ 0.399 µM) | 0.125 (≈ 0.0996 µM) |  | 1 (≈ 0.797 µM) | 1 (≈ 0.797 µM) | 1 (≈ 0.797 µM) | 1 (≈ 0.797 µM) | 0.5 (≈ 0.399 µM) | 0.125 (≈ 0.0996 µM) | 1 (≈ 0.797 µM) | MIC (S. epidermis; test strain 5, S. epidermis, read-out: MIC): 0.5 µg/mL (≈ 0.399 µM)
3 |  |  |  |  |  |  | C/C=C1\NC(=O)[C@H]([C@@H](C)O)NC(=O)c2csc(n2)-c2ccc(-c3nc(-c4nc(C(=O)NC5(C(=O)NN6CC(=O)N(CC(=O)OC)C6=O)CC5)cs4)cs3)nc2-c2csc(n2)[C@H]([C@@H](C)O)NC(=O)c2csc(n2)[C@H](C(C)C)NC(=O)c2csc1n2 [Compound 26] |  |  |  | 0.5 (≈ 0.398 µM) |  |  |  |  |  |  |  | MIC (C. difficile 173; 173): 0.5 µg/mL (≈ 0.398 µM); MIC (M. intracelluare): 0.043 µg/mL (≈ 0.0342 µM); MIC (C. difficile 161; 161): 0.5 µg/mL (≈ 0.398 µM); MIC (C. difficile 181; 181): 1 µg/mL (≈ 0.796 µM); MIC (M. abscessus): 0.726 µg/mL (≈ 0.578 µM); MIC (S. aureus^MS [2]): 1 µg/mL (≈ 0.796 µM); MIC (S. epidermis^MR): 1 µg/mL (≈ 0.796 µM); MIC (C. difficile 152; 152): 0.5 µg/mL (≈ 0.398 µM); MIC (C. difficile 9689; 9689): 1 µg/mL (≈ 0.796 µM); MIC (C. difficile 174; 174): 0.5 µg/mL (≈ 0.398 µM); MIC (E. faecalis): 1 µg/mL (≈ 0.796 µM)
4 | 0.115 (≈ 0.0904 µM) | 0.49 (≈ 0.385 µM) | 0.13 (≈ 0.102 µM) | 0.5 (≈ 0.393 µM) | 0.25 (≈ 0.196 µM) | 0.5 (≈ 0.393 µM) | C/C=C1\NC(=O)[C@H]([C@@H](C)O)NC(=O)c2csc(n2)-c2ccc(-c3nc(-c4nc(C(=O)NC5(C(=O)NCCN6CCN(C[C@@H](O)CO)CC6)CC5)cs4)cs3)nc2-c2csc(n2)[C@H]([C@@H](C)O)NC(=O)c2csc(n2)[C@H](C(C)C)NC(=O)c2csc1n2 [Compound 28] |  |  |  |  |  |  |  |  |  |  |  | 

Row | Structure (SMILES) | MIC (M. intracelluare; [3]) [µg/mL] | MIC (M. abscessus; [4]) [µg/mL] | MIC (M. avium) [µg/mL] | MIC (S. aureus^MS [1]) [µg/mL] | MIC (S. aureus^MS [2]; [8]) [µg/mL] | MIC (E. faecalis^LinR) [µg/mL] | MIC (C. difficile 173; [5]) [µg/mL] | MIC (C. difficile 161; [6]) [µg/mL] | MIC (C. difficile 181; [7]) [µg/mL] | MIC (S. epidermis) [µg/mL] | MIC (E. faecalis^VanA) [µg/mL] | MIC (S. epidermis^MR; [9]) [µg/mL] | MIC (E. faecium) [µg/mL] | MIC (C. difficile 152; [10]) [µg/mL] | MIC (C. difficile 9689; [11]) [µg/mL] | MIC (C. difficile 174; [12]) [µg/mL] | MIC (E. faecalis; [13]) [µg/mL] | further results
5 | C/C=C1\NC(=O)[C@H]([C@@H](C)O)NC(=O)c2csc(n2)-c2ccc(-c3nc(-c4nc(C(=O)NC5(C(=O)NCCCN6C(=O)CNC6=O)CC5)cs4)cs3)nc2-c2csc(n2)[C@H]([C@@H](C)O)NC(=O)c2csc(n2)[C@H](C(C)C)NC(=O)c2csc1n2 [Compound 9] |  | 0.37 (≈ 0.302 µM) |  | 0.25 (≈ 0.204 µM) | 0.25 (≈ 0.204 µM) | 0.5 (≈ 0.408 µM) | 0.06 (≈ 0.0489 µM) | 0.5 (≈ 0.408 µM) | 0.25 (≈ 0.204 µM) | 0.125 (≈ 0.102 µM) | 0.5 (≈ 0.408 µM) | 0.25 (≈ 0.204 µM) | 0.5 (≈ 0.408 µM) | 0.06 (≈ 0.0489 µM) | 0.5 (≈ 0.408 µM) | 0.06 (≈ 0.0489 µM) | 0.25 (≈ 0.204 µM) | MIC (C. difficile 159): 0.5 µg/mL (≈ 0.408 µM); MIC (S. aureus^VR): 1 µg/mL (≈ 0.815 µM); MIC (E. faecium^LinR): 0.5 µg/mL (≈ 0.408 µM); MIC (S. aureus^MR): 1 µg/mL (≈ 0.815 µM); MIC (E. faecium^VRE): 1 µg/mL (≈ 0.815 µM)
